The record followed here is patent publication US6773627B2, “Cubic liquid crystalline compositions and methods for their preparation” (Children's Hospital Research Foundation, priority 2000, dated 2004).

Molecules are shown by their SMILES. Entries after “also recorded” stand apart in the source; their conditions may differ.

The nature of this data set: Determination of hydrotrope utility (polarized light microscopy and rheology of compound/water/monoolein compositions). The following applies: for Formation of cubic phase in equilibrium with liquid water: system of compound, monoolein and water. In kind it is physicochemical. The source says: Whether a compound is suitable to use as ingredient (A) can be determined by one skilled in the art without undue experimentation. The determination can be made by preparing a composition comprising the compound to be tested for use as the hydrotrope, the selected amphiphile, and the selected solvent and allowing the composition to equilibrate, for example, by the method described below in Reference Example 1. If the composition forms a cubic phase or cubic phase in combination with another phase, then the hydrotrope is suitable to use in this invention. If the composition forms a cubic phase or cubic phase in combination with an isotropic liquid, then the hydrotrope is preferred.
Polarized light microscopy (PLM) can be used to determine whether the composition formed cubic phase. PLM can be carried out on a polarized light microscope or constructed light box, as described by Laughlin, R. G., J. Colloid Interface Sci., 55, 239-242 (1976). Polarized light microscope textures define the phase/colloidal state of sample. Lamellar and hexagonal phases give birefringence (see Hecht, E., Optics, 2nd ed., Addison-Wesley Publishing Co., Reading, Mass., pp. 282-289 (1984)) and distinct textures such as Maltese Crosses (see Rosevear, F. B., J. Am. Oil Chemists Soc., 31, 628-638 (1954)). This is a consequence of the anisotropic phase structure of these particular phases, and their orientation relative to polarization of the light. However, L1, L2, L3, and cubic phases show no birefringence and appear dark in the microscope. Birefringence is a function of sample thickness, so sometimes it is difficult to see with a light microscope. Instead, the bulk sample can be placed in the aforementioned light box to secure a very thick sample.
Cubic phases are very viscous while the other phases are (i.e., L1, L2, and L3) are less viscous, like water. Therefore, lack of birefringence in combination with bulk solid-like rheological properties indicates the presence of cubic phase.
A compound for use as a hydrotrope is dissolved in water in amounts to form a hydrotrope solution. The solution is added to monoolein (DIMODAN® MO90K) to yield a composition. The composition is left to equilibrate overnight at a temperature of 25 to 30° C.
PLM can be carried out on a polarized light microscope or constructed light box, as described by Laughlin, R. G., J. Colloid Interface Sci., 55, 239-242 (1976). Rheological properties of the composition are also observed.
Various compounds are evaluated according to Reference Example 1. The compounds, the compositions prepared, and the results are in Table E1, below. FIG. 4 is a ternary diagram 400 showing the data points in Example 3. FIG. 5 is a ternary diagram 500 for 1,2-hexanediol 516, monoolein 517, and water 518. […] FIG. 6 is a ternary diagram 600 for 1,2-hexanediol 613, monoolein 614, and water 615. […] FIG. 7 is a ternary diagram 700 for ethanol 713, monoolein 714, and water 715.

The mark [1] stands for this setting: compound 10, water 80, amphiphile (monoolein) 10 (κ).
Setting [2] is: system with monoolein and water.

Turning to `OCCCCO` [1,4-butanediol], the “Phase(s) Formed” value under setting [1] was “cubic and L1”. Also, the Suitability as hydrotrope result under setting [2] is listed as “effective as hydrotropes”.

On to `CCCCC(O)CO` (stereo not shown) [1,2-hexanediol], for which the “Formation of cubic phase in equilibrium with liquid water” value is listed as “does not form cubic phase in equilibrium with liquid water”. Besides, the “Phase(s) Formed” value (FIG. 5 point 501, compound 10, water 81, amphiphile (monoolein) 9 (κ)) was “liquid water and L1”. For the same compound, the “Phase(s) Formed” value (FIG. 5 point 502, compound 10, water 71, amphiphile (monoolein) 19 (κ)) is “L1 and lamellar”. Also, the “Phase(s) Formed” value (FIG. 5 point 503, compound 10, water 64, amphiphile (monoolein) 26 (κ)) is “L1 and lamellar”. Besides, the “Phase(s) Formed” value (FIG. 5 point 504, compound 12, water 53, amphiphile (monoolein) 35 (κ)) is “L1 and lamellar”. In addition, the “Phase(s) Formed” value (FIG. 5 point 505, compound 10, water 45, amphiphile (monoolein) 45 (κ)) is “L1 and lamellar”. In addition, for the setting “FIG. 5 point 510, compound 20, water 40, amphiphile (monoolein) 40 (κ)”, the “Phase(s) Formed” value was “L1 and lamellar”. For the same compound, where the note is “FIG. 6 point 601, compound 6, water 56, amphiphile (monoolein) 38 (κ)”, the “Phase(s) Formed” value was “cubic and lamellar”. Also, the “Phase(s) Formed” value (FIG. 6 point 602, compound 4, water 58, amphiphile (monoolein) 38 (κ)) is “cubic and lamellar”. Besides, the “Phase(s) Formed” value (FIG. 6 point 603, compound 2, water 59, amphiphile (monoolein) 39 (κ)) was “cubic and lamellar”. For the same compound, the “Phase(s) Formed” value (FIG. 6 point 604, compound 6, water 38, amphiphile (monoolein) 56 (κ)) was “cubic and lamellar”. Further, the “Phase(s) Formed” value (FIG. 6 point 605, compound 4, water 39, amphiphile (monoolein) 57 (κ)) was “cubic and lamellar”. The “Phase(s) Formed” value (FIG. 6 point 606, compound 2, water 39, amphiphile (monoolein) 59 (κ)) is “cubic and lamellar”. The “Phase(s) Formed” value (FIG. 6 point 607, compound 6, water 28, amphiphile (monoolein) 66 (κ)) was “cubic and lamellar”. Moreover, the “Phase(s) Formed” value (FIG. 6 point 608, compound 2, water 29, amphiphile (monoolein) 69 (κ)) was “cubic and lamellar”. The “Phase(s) Formed” value (FIG. 6 point 609, compound 16, water 13, amphiphile (monoolein) 71 (κ)) was “lamellar”. Further, the “Phase(s) Formed” value (FIG. 6 point 610, compound 10, water 14, amphiphile (monoolein) 76 (κ)) was “lamellar”. The “Phase(s) Formed” value (FIG. 6 point 611, compound 5, water 14, amphiphile (monoolein) 81 (κ)) is reported as “lamellar”. In addition, the “Phase(s) Formed” value (FIG. 6 point 612, compound 5, water 12, amphiphile (monoolein) 83 (κ)) is recorded as “lamellar”. In addition, the Suitability as hydrotrope entry under setting [2] is listed as “suitable to use as a hydrotrope”.

As for `CCN(CC)CCOC(=O)c1ccc(N)cc1.Cl` [procaine hydrogen chloride, reference compound], the “Phase(s) Formed” value under setting [1] is “cubic and L1”. Further, under setting [2], the Suitability as hydrotrope result was “effective as hydrotropes”.

On to `CC(C)O` [Example 2-propanol, 2-propanol], for which, under setting [1], the “Phase(s) Formed” value is “does not form cubic phase; also recorded: Turbid solution and L1”. Further, under setting [2], the Suitability as hydrotrope result is given as “not preferred to use as a hydrotrope”.

Regarding `CCO` [ethanol], the “Formation of cubic phase in equilibrium with liquid water” value is listed as “can be formed”. Besides, where the note is “FIG. 4 point 401, compound 20, water 48, amphiphile (monoolein) 32 (κ)”, the “Phase(s) Formed” value was “L1 and lamellar”. For the same compound, the “Phase(s) Formed” value (FIG. 4 point 404, compound 9, water 55, amphiphile (monoolein) 36 (κ)) is “cubic and lamellar”. The “Phase(s) Formed” value (FIG. 4 point 405, compound 6, water 56, amphiphile (monoolein) 38 (κ)) is “cubic and lamellar”. For the same compound, the “Phase(s) Formed” value (FIG. 7 point 701, compound 11, water 88, amphiphile (monoolein) 1 (κ)) is reported as “cubic & isotropic liquid”. Also, the “Phase(s) Formed” value (FIG. 7 point 702, compound 10, water 70, amphiphile (monoolein) 20 (κ)) is “cubic & isotropic liquid”. In addition, the “Phase(s) Formed” value (FIG. 7 point 703, compound 10, water 59, amphiphile (monoolein) 31 (κ)) was “cubic & isotropic liquid”. The “Phase(s) Formed” value (FIG. 7 point 704, compound 10, water 48, amphiphile (monoolein) 42 (κ)) is listed as “cubic & isotropic liquid”. For the same compound, where the note is “FIG. 7 point 706, compound 20, water 55, amphiphile (monoolein) 25 (κ)”, the “Phase(s) Formed” value is “L1 and lamellar”. The “Phase(s) Formed” value (FIG. 7 point 707, compound 19, water 49, amphiphile (monoolein) 32 (κ)) is “L1 and lamellar”. The “Phase(s) Formed” value (FIG. 7 point 708, compound 20, water 42, amphiphile (monoolein) 39 (κ)) was “lamellar”. Moreover, the “Phase(s) Formed” value (FIG. 7 point 709, compound 29, water 60, amphiphile (monoolein) 11 (κ)) is “L1 and lamellar”. For the same compound, the “Phase(s) Formed” value (FIG. 7 point 710, compound 28, water 52, amphiphile (monoolein) 20 (κ)) was “L1 and lamellar”. Moreover, the “Phase(s) Formed” value (FIG. 7 point 711, compound 30, water 40, amphiphile (monoolein) 30 (κ)) is listed as “lamellar”. For the same compound, under “FIG. 7 point 712, compound 30, water 29, amphiphile (monoolein) 41 (κ)”, the “Phase(s) Formed” value is reported as “lamellar”. The Suitability as hydrotrope entry under setting [2] is given as “preferred hydrotrope”. Further, under “system with monoolein and water, % of the system”, the “Amount of compound at which it can be used as a hydrotrope” value is on record as “less than or equal to 10%”.
